Laboratory results as given in patent US20240228572A1 (i2o Therapeutics, Inc., priority 2020, published 2024).
*1 amine or outer side, *2 acyl side, *3 side chain or, on linkers, in order; H or OH if unused. Where a SMILES comes first, the peptide text is derived from it. Bridges are numbered along the chain shown (N, C = ends). Side-chain parts run from the residue outwards. [ ]: non-standard residue; d: D form. The star is where a group is joined. C20 diacid = O=C(O)CCCCCCCCCCCCCCCCCCC(=O)*; γGlu = O=C(O)[C@H](CCC(=O)[*:2])N[*:1]; AEEA = NCCOCCOCC(=O)O; Aib = CC(C)(N)C(=O)O

Molecular target: T1, human GLP-1 receptor (GLP-1R) (Homo sapiens, UniProt P43220)
T1 construct: expressed in transfected cells
T1 sequence (P43220 24-463): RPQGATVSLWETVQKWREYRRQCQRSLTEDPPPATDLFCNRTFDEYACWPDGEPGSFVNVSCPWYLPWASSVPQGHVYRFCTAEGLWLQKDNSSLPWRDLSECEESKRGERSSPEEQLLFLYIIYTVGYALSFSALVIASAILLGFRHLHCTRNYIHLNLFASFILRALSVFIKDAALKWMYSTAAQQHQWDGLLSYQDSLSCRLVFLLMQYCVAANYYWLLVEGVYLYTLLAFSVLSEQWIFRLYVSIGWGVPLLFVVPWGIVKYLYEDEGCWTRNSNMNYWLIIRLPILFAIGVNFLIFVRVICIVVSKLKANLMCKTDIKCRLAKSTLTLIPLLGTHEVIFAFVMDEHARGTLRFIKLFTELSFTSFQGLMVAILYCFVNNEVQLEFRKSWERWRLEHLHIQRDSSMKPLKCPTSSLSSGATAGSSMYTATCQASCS
Test: cAMP accumulation assay, CHO-K1 cells stably expressing human GLP-1R
Type: cell-based
Conditions: cAMP accumulation, mean pEC50, Table 10
Procedure: In the presence of the non-specific cAMP/cGMP phosphodiesterase inhibitor, 3-isobutyl-1-methylxanthine (IBMX), accumulating cAMP can be measured in vitro using common detection methods. Thus, it is possible to estimate an in vitro potency (pEC50) for peptides activating each of these receptors using fit dose-response curves for cAMP accumulation.
CHO-K1 cells stably expressing human GLP-1R (Genebank accession #NM_002062) were grown in 90% F12-K media supplemented with 10% FBS and 250 μg/ml G418.
On day 1, CHO-K1 cells were plated at 1.5 million cells per T75 flask in 90% F12-K media supplemented with 10% FBS. On day 3 cells were transfected with 40 mcg of each expression plasmid using Lipofectamine 2000 transfection reagent. On day 5, cells were dispensed at 1000 cells per well in white 384-well OptiPlates in 5 mcL of assay buffer consisting of 1×HBSS, 5 mM HEPES, 0.5 mM IBMX, and 0.1% casein.
Peptides were serially diluted 4-fold in assay buffer to final concentrations ranging from 1×10^−9 M to 9.5×10^−16 M. Two assay controls consisting of 50 mcM forskolin (cAMP system maximum) or assay buffer only (cAMP system minimum) were also prepared. Five microliters of each peptide-concentration, or assay control, was added to triplicate wells and incubated for thirty minutes at room temperature. During this incubation step a 4× europium labelled cAMP tracer solution and a 4× Ulight®-anti-cAMP solution (consisting of an anti-cAMP monoclonal antibody labelled with Ulight™ dye) was prepared according to the manufacturer's protocol (PerkinElmer LANCE Ultra cAMP kit). Following this incubation, 5 mcL europium labelled cAMP and 5 mcL Ulight anti-cAMP antibody was added to each well. The plate was covered to prevent evaporation and incubated for 60 minutes at room temperature in the dark. Plates were read on an Envision fluorescent plate reader (PerkinElmer).
Test values were first normalized to the system maximum and system minimum averaged values in Excel using the formula: (test value−system min average)/(system max average -system min average)*100. Normalized test values represent a baseline corrected percentage of the system maximum cAMP response induced by forskolin. Data from up to 3 replicate tests were analyzed for each peptide. Potency values were estimated using GraphPad Prism software (v7.04) by fitting data to a 4-parameter logistic curve model: Y=Bottom+(Top−Bottom)/(1+10^((LogEC50−X))). The Hill slope was constrained to 1.0. EC50 values were converted to pEC50 values using the formula: pEC50=−Log (EC50).

Row | Structure (SMILES) | EC50 [nM]
1 | CC(C)C[C@H](NC(=O)[C@H](Cc1ccc(O)cc1)NC(=O)[C@H](CCCCN)NC(=O)[C@H](CO)NC(=O)[C@H](Cc1ccc(O)cc1)NC(=O)[C@H](CC(=O)O)NC(=O)[C@H](CO)NC(=O)[C@@H](NC(=O)[C@H](Cc1ccccc1)NC(=O)[C@@H](NC(=O)CNC(=O)[C@H](Cc1c[nH]cn1)NC(=O)[C@H](CO)NC(=O)[C@@H](N)Cc1ccc(O)cc1)[C@@H](C)O)[C@@H](C)O)C(=O)N[C@@H](CC(=O)O)C(=O)N[C@@H](CCCCNC(=O)CC[C@H](NC(=O)CC[C@H](NC(=O)COCCOCCNC(=O)CCCCCCCCCCCCCCCCCCC(=O)O)C(=O)O)C(=O)O)C(=O)N[C@@H](CCCCN)C(=O)N[C@@H](Cc1ccc(O)cc1)C(=O)N[C@@H](C)C(=O)N[C@@H](CCC(N)=O)C(=O)N[C@@H](CCC(=O)O)C(=O)N[C@@H](Cc1ccccc1)C(=O)N[C@H](C(=O)NC(C)(C)C(=O)N[C@@H](Cc1c[nH]c2ccccc12)C(=O)N[C@@H](CC(C)C)C(=O)N[C@@H](CCC(=O)O)C(=O)N[C@@H](CCC(=O)O)C(=O)N[C@@H](CCC(=O)O)C(=O)N1CCC[C@H]1C(=O)N[C@@H](CO)C(=O)N[C@@H](CO)C(=O)NCC(=O)N[C@@H](C)C(=O)N1CCC[C@H]1C(=O)N1CCC[C@H]1C(=O)N1CCC[C@H]1C(=O)N[C@@H](CO)C(=O)O)C(C)C [Compound A15] (H-YSHGTFTSDYSKYLDK([γGlu-γGlu-AEEA-C20 diacid])KYAQEFV[Aib]WLEEEPSSGAPPPS-OH) | > 1
2 | CC(C)C[C@H](NC(=O)[C@H](Cc1ccc(O)cc1)NC(=O)[C@H](CCCCN)NC(=O)[C@H](CO)NC(=O)[C@H](Cc1ccc(O)cc1)NC(=O)[C@H](CC(=O)O)NC(=O)[C@H](CO)NC(=O)[C@@H](NC(=O)[C@H](Cc1ccccc1)NC(=O)[C@@H](NC(=O)CNC(=O)[C@H](Cc1c[nH]cn1)NC(=O)[C@H](CO)NC(=O)[C@@H](N)Cc1ccc(O)cc1)[C@@H](C)O)[C@@H](C)O)C(=O)N[C@@H](CC(=O)O)C(=O)N[C@@H](CCCCNC(=O)CC[C@H](NC(=O)CC[C@H](NC(=O)COCCOCCNC(=O)CCCCCCCCCCCCCCCCCCC(=O)O)C(=O)O)C(=O)O)C(=O)N[C@@H](CCCCN)C(=O)N[C@@H](Cc1ccc(O)cc1)C(=O)N[C@@H](C)C(=O)N[C@@H](CCC(N)=O)C(=O)N[C@@H](CCC(=O)O)C(=O)N[C@@H](Cc1ccccc1)C(=O)N[C@H](C(=O)NC(C)(C)C(=O)N[C@@H](Cc1c[nH]c2ccccc12)C(=O)N[C@@H](CC(C)C)C(=O)N[C@@H](CCC(=O)O)C(=O)N[C@@H](CC(N)=O)C(=O)N[C@@H](CCC(=O)O)C(=O)N1CCC[C@H]1C(=O)N[C@@H](CO)C(=O)N[C@@H](CO)C(=O)NCC(=O)N[C@@H](C)C(=O)N1CCC[C@H]1C(=O)N1CCC[C@H]1C(=O)N1CCC[C@H]1C(=O)N[C@@H](CO)C(=O)O)C(C)C [Compound A16] (H-YSHGTFTSDYSKYLDK([γGlu-γGlu-AEEA-C20 diacid])KYAQEFV[Aib]WLENEPSSGAPPPS-OH) | > 1
3 | CC(C)C[C@H](NC(=O)[C@H](Cc1ccc(O)cc1)NC(=O)[C@H](CCCCN)NC(=O)[C@H](CO)NC(=O)[C@H](Cc1ccc(O)cc1)NC(=O)[C@H](CC(=O)O)NC(=O)[C@H](CO)NC(=O)[C@@H](NC(=O)[C@H](Cc1ccccc1)NC(=O)[C@@H](NC(=O)CNC(=O)[C@H](Cc1c[nH]cn1)NC(=O)[C@H](CO)NC(=O)[C@@H](N)Cc1ccc(O)cc1)[C@@H](C)O)[C@@H](C)O)C(=O)N[C@@H](CC(=O)O)C(=O)N[C@@H](CCCCNC(=O)CC[C@H](NC(=O)CC[C@H](NC(=O)COCCOCCNC(=O)CCCCCCCCCCCCCCCCCCC(=O)O)C(=O)O)C(=O)O)C(=O)N[C@@H](CCCCN)C(=O)N[C@@H](Cc1ccc(O)cc1)C(=O)N[C@@H](C)C(=O)N[C@@H](CCC(N)=O)C(=O)N[C@@H](CCC(=O)O)C(=O)N[C@@H](Cc1ccccc1)C(=O)N[C@H](C(=O)NC(C)(C)C(=O)N[C@@H](Cc1c[nH]c2ccccc12)C(=O)N[C@@H](CC(C)C)C(=O)N[C@@H](CCC(=O)O)C(=O)N[C@@H](CCC(N)=O)C(=O)N[C@@H](CCC(=O)O)C(=O)N1CCC[C@H]1C(=O)N[C@@H](CO)C(=O)N[C@@H](CO)C(=O)NCC(=O)N[C@@H](C)C(=O)N1CCC[C@H]1C(=O)N1CCC[C@H]1C(=O)N1CCC[C@H]1C(=O)N[C@@H](CO)C(=O)O)C(C)C [Compound A17] (H-YSHGTFTSDYSKYLDK([γGlu-γGlu-AEEA-C20 diacid])KYAQEFV[Aib]WLEQEPSSGAPPPS-OH; N-terminus assumed) | > 1
4 | CC(C)C[C@H](NC(=O)[C@H](Cc1ccc(O)cc1)NC(=O)[C@H](CCCCN)NC(=O)[C@H](CO)NC(=O)[C@H](Cc1ccc(O)cc1)NC(=O)[C@H](CC(=O)O)NC(=O)[C@H](CO)NC(=O)[C@@H](NC(=O)[C@H](Cc1ccccc1)NC(=O)[C@@H](NC(=O)CNC(=O)[C@H](Cc1c[nH]cn1)NC(=O)[C@H](CO)NC(=O)[C@@H](N)Cc1ccc(O)cc1)[C@@H](C)O)[C@@H](C)O)C(=O)N[C@@H](CC(=O)O)C(=O)N[C@@H](CCCCNC(=O)CC[C@H](NC(=O)CC[C@H](NC(=O)COCCOCCNC(=O)CCCCCCCCCCCCCCCCCCC(=O)O)C(=O)O)C(=O)O)C(=O)N[C@@H](CCCCN)C(=O)N[C@@H](Cc1ccc(O)cc1)C(=O)N[C@@H](C)C(=O)N[C@@H](CCC(N)=O)C(=O)N[C@@H](CCC(=O)O)C(=O)N[C@@H](Cc1ccccc1)C(=O)N[C@H](C(=O)NC(C)(C)C(=O)N[C@@H](Cc1c[nH]c2ccccc12)C(=O)N[C@@H](CC(C)C)C(=O)N[C@@H](CCC(=O)O)C(=O)N[C@@H](CO)C(=O)N[C@@H](CCC(=O)O)C(=O)N1CCC[C@H]1C(=O)N[C@@H](CO)C(=O)N[C@@H](CO)C(=O)NCC(=O)N[C@@H](C)C(=O)N1CCC[C@H]1C(=O)N1CCC[C@H]1C(=O)N1CCC[C@H]1C(=O)N[C@@H](CO)C(=O)O)C(C)C [Compound A19] (H-YSHGTFTSDYSKYLDK([γGlu-γGlu-AEEA-C20 diacid])KYAQEFV[Aib]WLESEPSSGAPPPS-OH) | > 1
5 | CC(C)C[C@H](NC(=O)[C@H](Cc1ccc(O)cc1)NC(=O)[C@H](CCCCN)NC(=O)[C@H](CO)NC(=O)[C@H](Cc1ccc(O)cc1)NC(=O)[C@H](CC(=O)O)NC(=O)[C@H](CO)NC(=O)[C@@H](NC(=O)[C@H](Cc1ccccc1)NC(=O)[C@@H](NC(=O)CNC(=O)[C@H](Cc1c[nH]cn1)NC(=O)[C@H](CO)NC(=O)[C@@H](N)Cc1ccc(O)cc1)[C@@H](C)O)[C@@H](C)O)C(=O)N[C@@H](CC(=O)O)C(=O)N[C@@H](CCCCNC(=O)CC[C@H](NC(=O)CC[C@H](NC(=O)COCCOCCNC(=O)CCCCCCCCCCCCCCCCCCC(=O)O)C(=O)O)C(=O)O)C(=O)N[C@@H](CCCCN)C(=O)N[C@@H](Cc1ccc(O)cc1)C(=O)N[C@@H](C)C(=O)N[C@@H](CCC(N)=O)C(=O)N[C@@H](CCC(=O)O)C(=O)N[C@@H](Cc1ccccc1)C(=O)N[C@H](C(=O)NC(C)(C)C(=O)N[C@@H](Cc1c[nH]c2ccccc12)C(=O)N[C@@H](CC(C)C)C(=O)N[C@@H](CCC(=O)O)C(=O)N[C@@H](CCCCN)C(=O)N[C@@H](CCC(=O)O)C(=O)N1CCC[C@H]1C(=O)N[C@@H](CO)C(=O)N[C@@H](CO)C(=O)NCC(=O)N[C@@H](C)C(=O)N1CCC[C@H]1C(=O)N1CCC[C@H]1C(=O)N1CCC[C@H]1C(=O)N[C@@H](CO)C(=O)O)C(C)C [Compound A20] (H-YSHGTFTSDYSKYLDK([γGlu-γGlu-AEEA-C20 diacid])KYAQEFV[Aib]WLEKEPSSGAPPPS-OH; N-terminus assumed) | > 1
6 | CC(C)C[C@H](NC(=O)[C@H](Cc1ccc(O)cc1)NC(=O)[C@H](CCCCN)NC(=O)[C@H](CO)NC(=O)[C@H](Cc1ccc(O)cc1)NC(=O)[C@H](CC(=O)O)NC(=O)[C@H](CO)NC(=O)[C@@H](NC(=O)[C@H](Cc1ccccc1)NC(=O)[C@@H](NC(=O)CNC(=O)[C@H](Cc1c[nH]cn1)NC(=O)[C@H](CO)NC(=O)[C@@H](N)Cc1ccc(O)cc1)[C@@H](C)O)[C@@H](C)O)C(=O)N[C@@H](CC(=O)O)C(=O)N[C@@H](CCCCNC(=O)CC[C@H](NC(=O)CC[C@H](NC(=O)COCCOCCNC(=O)CCCCCCCCCCCCCCCCCCC(=O)O)C(=O)O)C(=O)O)C(=O)N[C@@H](CCCCN)C(=O)N[C@@H](Cc1ccc(O)cc1)C(=O)N[C@@H](C)C(=O)N[C@H]1CCC(=O)NCCCC[C@@H](C(=O)N[C@@H](Cc2c[nH]c3ccccc23)C(=O)N[C@@H](CC(C)C)C(=O)N[C@@H](CCC(=O)O)C(=O)N[C@@H](CC(=O)O)C(=O)N[C@@H](CCC(=O)O)C(=O)N2CCC[C@H]2C(=O)N[C@@H](CO)C(=O)N[C@@H](CO)C(=O)NCC(=O)N[C@@H](C)C(=O)N2CCC[C@H]2C(=O)N2CCC[C@H]2C(=O)N2CCC[C@H]2C(=O)N[C@@H](CO)C(=O)O)NC(=O)[C@H](C(C)C)NC(=O)[C@H](Cc2ccccc2)NC(=O)[C@H](CCCCN)NC1=O [Compound A21] (H-YSHGTFTSDYSKYLDK([γGlu-γGlu-AEEA-C20 diacid])KYAEKFVKWLEDEPSSGAPPPS-OH; lactam 20-24; N-terminus assumed) | > 1
